Assay results published in publication PMC9150124, “Design of a Potent, Selective, and Brain-Penetrant Inhibitor of Wnt-Deactivating Enzyme Notum by Optimization of a Crystallographic Fragment Hit” (Journal of Medicinal Chemistry, 2022).

Assays:
Experiment in all cases: SelectScreen kinase profiling, SSBK LanthaScreen Binding SP Technology
[1] = biological target: kinase named in conditions (Homo sapiens, UniProt O43353); conditions: RIPK2, 10 μM
Protocol: (§1) Kinase selectivity screening was performed by Thermo Fisher Scientific (Paisley, U.K.) in their SelectScreen Biochemical Kinase Profiling Service. Assay information and data are presented in the Supporting Information.
(§2) Kinase selectivity screening was performed by ThermoFisher Scientific (Paisley, U.K.) in their SelectScreenTM
(§3) Biochemical Kinase Profiling service .
(§4) Illustration reproduced courtesy of Cell Signaling technology, Inc.
(§5) (B) Illustration of phylogenetic tree of kinases screened.

[2] = biological target: kinase named in conditions (Homo sapiens, UniProt O75385); conditions: ULK1, 10 μM
Protocol: as §1, §2, §3, §4, §5

[3] = biological target: kinase named in conditions (Homo sapiens, UniProt O75460); conditions: ERN1, 10 μM
Protocol: as §1, §2, §3, §4, §5

[4] = biological target: kinase named in conditions (Homo sapiens, UniProt P10721, D816H); conditions: KIT D816H, 10 μM
Protocol: as §1, §2, §3, §4, §5

[5] = biological target: kinase named in conditions (Homo sapiens, UniProt P10721, T670I/V559D); conditions: KIT V559D T670I, 10 μM
Protocol: as §1, §2, §3, §4, §5

[6] = biological target: kinase named in conditions (Homo sapiens, UniProt P10721, Y823D); conditions: KIT Y823D, 10 μM
Protocol: as §1, §2, §3, §4, §5

[7] = biological target: kinase named in conditions (Homo sapiens, UniProt P30530, R499C); conditions: AXL R499C, 10 μM
Protocol: as §1, §2, §3, §4, §5

[8] = biological target: kinase named in conditions (Homo sapiens, UniProt P36894); conditions: BMPR1A (ALK3), 10 μM
Protocol: as §1, §2, §3, §4, §5

[9] = biological target: kinase named in conditions (Homo sapiens, UniProt P50750); conditions: 10 μM
Protocol: as §1, §2, §3, §4, §5

[10] = biological target: kinase named in conditions (Homo sapiens, UniProt P53779); conditions: MAPK10 (JNK3), 10 μM
Protocol: as §1, §2, §3, §4, §5

[11] = biological target: kinase named in conditions (Homo sapiens, UniProt P57058); conditions: HUNK, 10 μM
Protocol: as §1, §2, §3, §4, §5

[12] = biological target: kinase named in conditions (Homo sapiens, UniProt Q02779); conditions: MAP3K10 (MLK2), 10 μM
Protocol: as §1, §2, §3, §4, §5

[13] = biological target: kinase named in conditions (Homo sapiens, UniProt Q12866, A708S); conditions: MERTK (cMER) A708S, 10 μM
Protocol: as §1, §2, §3, §4, §5

[14] = biological target: kinase named in conditions (Homo sapiens, UniProt Q15208); conditions: STK38 (NDR), 10 μM
Protocol: as §1, §2, §3, §4, §5

[15] = biological target: kinase named in conditions (Homo sapiens, UniProt Q15375); conditions: EPHA7, 10 μM
Protocol: as §1, §2, §3, §4, §5

[16] = biological target: kinase named in conditions (Homo sapiens, UniProt Q15569); conditions: TESK1, 10 μM
Protocol: as §1, §2, §3, §4, §5

[17] = biological target: kinase named in conditions (Homo sapiens, UniProt Q15835); conditions: GRK1, 10 μM
Protocol: as §1, §2, §3, §4, §5

[18] = biological target: kinase named in conditions (Homo sapiens, UniProt Q16832); conditions: DDR2, 10 μM
Protocol: as §1, §2, §3, §4, §5

[19] = biological target: kinase named in conditions (Homo sapiens, UniProt Q5TCX8); conditions: MLK4, 10 μM
Protocol: as §1, §2, §3, §4, §5

[20] = biological target: kinase named in conditions (Homo sapiens, UniProt Q6PHR2); conditions: ULK3, 10 μM
Protocol: as §1, §2, §3, §4, §5

[21] = biological target: kinase named in conditions (Homo sapiens, UniProt Q76MJ5); conditions: ERN2, 10 μM
Protocol: as §1, §2, §3, §4, §5

[22] = biological target: kinase named in conditions (Homo sapiens, UniProt Q86UE8); conditions: TLK2, 10 μM
Protocol: as §1, §2, §3, §4, §5

[23] = biological target: kinase named in conditions (Homo sapiens, UniProt Q8TD08); conditions: MAPK15 (ERK7), 10 μM
Protocol: as §1, §2, §3, §4, §5

[24] = biological target: kinase named in conditions (Homo sapiens, UniProt Q96RR4); conditions: CAMKK2 (CaMKK beta), 10 μM
Protocol: as §1, §2, §3, §4, §5

[25] = biological target: kinase named in conditions (Homo sapiens, UniProt Q9H4A3); conditions: WNK1, 10 μM
Protocol: as §1, §2, §3, §4, §5

[26] = biological target: kinase named in conditions (Homo sapiens, UniProt Q9NY57); conditions: STK32B (YANK2), 10 μM
Protocol: as §1, §2, §3, §4, §5

[27] = biological target: kinase named in conditions (Homo sapiens, UniProt Q9UEE5); conditions: STK17A (DRAK1), 10 μM
Protocol: as §1, §2, §3, §4, §5

[28] = biological target: kinase named in conditions (Homo sapiens, UniProt Q9UF33); conditions: EPHA6, 10 μM
Protocol: as §1, §2, §3, §4, §5

[29] = biological target: kinase named in conditions (Homo sapiens, UniProt Q9UKI8); conditions: TLK1, 10 μM
Protocol: as §1, §2, §3, §4, §5

[30] = biological target: kinase named in conditions (Homo sapiens, UniProt Q9UM73, C1156Y); conditions: ALK C1156Y, 10 μM
Protocol: as §1, §2, §3, §4, §5

[31] = biological target: kinase named in conditions (Homo sapiens, UniProt Q9UM73, F1174L); conditions: ALK F1174L, 10 μM
Protocol: as §1, §2, §3, §4, §5

[32] = biological target: kinase named in conditions (Homo sapiens, UniProt Q9UM73, R1275Q); conditions: ALK R1275Q, 10 μM
Protocol: as §1, §2, §3, §4, §5

[33] = biological target: kinase named in conditions (Homo sapiens, UniProt Q9Y3S1); conditions: WNK2, 10 μM
Protocol: as §1, §2, §3, §4, §5

[34] = biological target: kinase named in conditions (Homo sapiens, UniProt Q9Y616); conditions: IRAK3, 10 μM
Protocol: as §1, §2, §3, §4, §5

## FC(F)(F)c1c(Cl)ccc(-n2ccnn2)c1Cl [8l, 1-(2,4-Dichloro-3-(trifluoromethyl)phenyl)-1H-1,2,3-triazole]
[1]
  inhibition at 10 µM: 5%
[2]
  inhibition at 10 µM: -2%
[3]
  inhibition at 10 µM: -4%
[4]
  inhibition at 10 µM: -2%
[5]
  inhibition at 10 µM: -3%
[6]
  inhibition at 10 µM: 6%
[7]
  inhibition at 10 µM: 5%
[8]
  inhibition at 10 µM: 6%
[9]; CDK9 (Inactive)
  inhibition at 10 µM: -5%
[9]; CDK9/cyclin K
  inhibition at 10 µM: -10%
[10]
  inhibition at 10 µM: -1%
[11]
  inhibition at 10 µM: 1%
[12]
  inhibition at 10 µM: 1%
[13]
  inhibition at 10 µM: -3%
[14]
  inhibition at 10 µM: -8%
[15]
  inhibition at 10 µM: 0%
[16]
  inhibition at 10 µM: 7%
[17]
  inhibition at 10 µM: 3%
[18]
  inhibition at 10 µM: -3%
[19]
  inhibition at 10 µM: 11%
[20]
  inhibition at 10 µM: -4%
[21]
  inhibition at 10 µM: 9%
[22]
  inhibition at 10 µM: 11%
[23]
  inhibition at 10 µM: 1%
[24]
  inhibition at 10 µM: -1%
[25]
  inhibition at 10 µM: 2%
[26]
  inhibition at 10 µM: 12%
[27]
  inhibition at 10 µM: 13%
[28]
  inhibition at 10 µM: 1%
[29]
  inhibition at 10 µM: 7%
[30]
  inhibition at 10 µM: 4%
[31]
  inhibition at 10 µM: 1%
[32]
  inhibition at 10 µM: -2%
[33]
  inhibition at 10 µM: 2%
[34]
  inhibition at 10 µM: 15%
